In the OPERA property sets (Mansouri et al. 2018):

Row | SMILES | melting point | boiling point | ready biodegradability | log10 Koa | log10 vapour pressure (mmHg) | log10 Koc (L/kg) | log10 Henry constant (atm·m³/mol) | log10 biodegradation half-life (days)
1 | Nc1ccc(S(=O)(=O)c2ccc(N)cc2)cc1 | 176 °C |  |  |  |  |  |  | 
2 | Cc1c(C(N)=O)cc([N+](=O)[O-])cc1[N+](=O)[O-] | 177 °C |  |  |  |  |  |  | 
3 | O=Cc1ccc([N+](=O)[O-])o1 | 35.5 °C | 228 °C | readily biodegradable |  |  |  |  | 
4 | O=C(CO)[C@@H](O)[C@@H](O)[C@H](O)[C@H](O)CO | 151 °C |  |  |  |  |  |  | 
5 | O=c1c(O)c(-c2ccc(O)cc2)oc2cc(O)cc(O)c12 | 277 °C |  |  |  |  |  |  | 
6 | NC(=S)N=C(N)N | 172 °C |  |  |  |  |  |  | 
7 | CCP(CC)CC | -88 °C | 129 °C |  |  |  |  |  | 
8 | O[C@H]1[C@H](O)[C@@H](O)[C@H](O)[C@@H](O)[C@H]1O (racemic) | 237 °C |  |  |  |  |  |  | 
9 | Nc1ccc(Cl)c([N+](=O)[O-])c1 | 103 °C |  |  |  |  |  |  | 
10 | Clc1ccc2c(Cl)c(Cl)cc(Cl)c2c1 |  |  |  | 8.08 |  |  |  | 
11 | CCCCCCc1ccc(-c2ccc(C#N)cc2)cc1 |  |  | not readily biodegradable |  |  |  |  | 
12 | ClC1=C(Cl)C2(Cl)C3C(Cl)OC(Cl)C3C1(Cl)C2(Cl)Cl (centres undefined) | 121 °C |  |  |  | -5.53 |  |  | 
13 | CC(=O)N(CC(C)C(=O)O)c1c(I)cc(I)c(N)c1I (centres undefined) | 224 °C |  |  |  |  |  |  | 
14 | Nc1nc[nH]n1 | 159 °C |  | not readily biodegradable |  | -6.36 | 1.25 |  | 
15 | C=C(C)CCO |  | 132 °C |  |  | 0.551 |  |  | 
16 | N#CCC(N)=O | 122 °C |  |  |  |  |  |  | 
17 | COP(=O)(OC)O/C(C)=C/C(=O)N(C)C |  |  |  |  | -3.8 | 1.66 | -10.3 | 
18 | N#CCCCCCN | -31.4 °C | 236 °C |  |  | -0.745 |  |  | 
19 | CCOC(=O)c1ccc(O)cc1 | 117 °C | 298 °C | readily biodegradable |  |  | 2.21 |  | 
20 | Cc1cccnc1C |  | 161 °C |  |  | 0.43 |  | -5.14 | 
21 | CC(C)CC#N | -101 °C | 128 °C |  |  |  |  |  | 
22 | CCCCCCCCCCC | -25.6 °C | 196 °C | readily biodegradable |  | -0.385 |  |  | 0.845
23 | CCC1C=CCC1 (centres undefined) |  | 97.8 °C |  |  |  |  |  | 
24 | C=CC(=O)OCC(F)(F)C(F)F |  | 132 °C |  |  |  |  |  | 
25 | NS(=O)(=O)c1ccc(CCCCCO)cc1 | 86 °C |  |  |  |  |  |  | 

Row | SMILES | melting point | boiling point | ready biodegradability | log10 Koa | log10 vapour pressure (mmHg) | log10 Koc (L/kg) | log10 Henry constant (atm·m³/mol) | log10 biodegradation half-life (days)
26 | CC(=O)C(N=Nc1ccc(-c2ccc(N=NC(C(C)=O)C(=O)Nc3ccccc3)c(Cl)c2)cc1Cl)C(=O)Nc1ccccc1 (centres undefined) |  |  | not readily biodegradable |  |  |  |  | 
27 | CCOc1ccc(C=O)cc1OC | 64.5 °C |  |  |  |  |  |  | 
28 | c1ccc(-c2cnc(-c3ccc(-c4ncc(-c5ccccc5)o4)cc3)o2)cc1 | 245 °C |  |  |  |  |  |  | 
29 | COc1ccc2c(c1OC)C(=O)OC2 | 102 °C |  |  |  |  |  |  | 
30 | CCCC(=O)C(=O)O | 6.5 °C | 179 °C |  |  |  |  |  | 
31 | CC[C@@H](CO)NC(=O)[C@@H]1C=C2c3cccc4c3c(cn4C)C[C@H]2N(C)C1 | 195 °C |  |  |  |  |  |  | 
32 | Cc1ccc2cccc(C)c2n1 | 27 °C | 255 °C |  |  |  |  |  | 
33 | Nc1c(Cl)c(Cl)nc(C(=O)O)c1Cl | 218 °C |  | not readily biodegradable |  | -10.1 | 1.3 |  | 
34 | CC(C)(C)CC(C)(C)c1ccc(O)c(Cc2ccc(Cl)cc2Cl)c1 | 78 °C |  |  |  |  |  |  | 
35 | COc1ccc2c(c1)[nH]c1c(C)nccc12 | 273 °C |  |  |  |  |  |  | 
36 | C=CCOc1ccc(CC(=O)O)cc1Cl | 92.5 °C |  |  |  |  |  |  | 
37 | O=C1c2ccccc2C(=O)c2c(Br)cccc21 | 186 °C |  |  |  |  |  |  | 
38 | Cc1ccc(C(=O)O)c([N+](=O)[O-])c1O | 186 °C |  |  |  |  |  |  | 
39 | O=C(C(Cl)Cl)C(Cl)(Cl)Cl | 2.1 °C |  |  |  |  |  |  | 
40 | FC1(F)C(Cl)=C(Cl)C(F)(F)C1(F)F | -106 °C | 90.7 °C |  |  |  |  |  | 
41 | O=COCCOC=O |  | 174 °C |  |  |  |  |  | 
42 | CC(CNC1CCCCC1)OC(=O)c1ccccc1.Cl (centres undefined) | 178 °C |  |  |  |  |  |  | 
43 | NC(=O)/C=C/C(=O)[O-] | 172 °C |  |  |  |  |  |  | 
44 | NC[C@H]1CCCO1 |  | 153 °C |  |  |  |  |  | 
45 | C=C(C)c1ccc(C)cc1 | -20 °C | 185 °C |  |  |  |  |  | 
46 | Cc1cc(Cc2cc(C)cc(C(C)(C)C)c2O)c(O)c(C(C)(C)C)c1 | 123 °C |  | not readily biodegradable |  |  |  |  | 
47 | O=[N+]([O-])c1ccc(Oc2ccccc2)c([N+](=O)[O-])c1 | 71 °C |  |  |  |  |  |  | 
48 | O=C[O-].[NH4+] | 116 °C |  |  |  |  |  |  | 
49 | CC(C)CCCC(C)CCO (centres undefined) |  | 212 °C |  |  |  |  |  | 
